{
  "source": "patent US20230257430A1",
  "about": "“RECOMBINANT PROTEINS FOR QUANTIFICATION OF PROTEIN LEVELS” (Genentech, Inc., priority 2020, published 2023)",
  "format_in_all_cases": "cell-based, human",
  "key": {"[1]": {"test_system": "A549 parental, ARAF KO, BRAF KO, RAF1 (CRAF) KO cancer cells", "test": "Soft agar colony formation growth assay with pan-RAF inhibitor in RAF-depleted RASK (KRAS) mutant cells", "conditions": "100 nM, 1 μM, 10 μM", "experimental": "FIG. 4J is a set of photomicrographs showing the results of a soft agar colony formation growth assay for A549 cells (parental) or ARAF knockout (KO), BRAF KO, or RAF1 (CRAF) KO cancer cells treated with the pan-RAF inhibitor AZ-628 at 100 nm, 1 μM, and 10 μM concentrations. Colonies were stained with MTT dye and imaged using a GelCount imager.\nFIG. 6G is a set of photomicrographs showing the results of a soft agar colony formation growth assay for the indicated cancer cells treated with non-targeting shRNAs (shNT) or shRNA targeting ARAF (shARAF), BRAF (shBRAF), or RAF1 (CRAF) (shCRAF) and treated with the pan-RAF inhibitor AZ-628 at 100 nm, 1 μM, and 10 μM concentrations or a DMSO control.\nIt was hypothesized that the ratio of RAF1 (CRAF):ARAF versus RAF1 (CRAF):BRAF heterodimers may be important in the growth of RASK (KRAS) mutant tumors, and that this ratio may impact the efficacy of RAF kinase inhibition. To test this hypothesis, RASK (KRAS) mutant cells depleted of individual members of the RAF kinases (ARAF, BRAF or RAF1 (CRAF)) were treated with a pan-RAF dimer inhibitor (AZ-628). […] Taken together, RAF1 (CRAF) dimerization partners appear to dictate sensitivity to MAPK inhibition."}, "MAPK signaling": {"test_system": "MAPK signaling", "test": "Western blot analysis of MAPK pathway components in RASK (KRAS) mutant cancer cells", "conditions": "250 nM, 24 hours"}, "[2]": {"test_system": "ERK downstream substrates (MAPK target gene set)", "test": "mRNA sequencing of MAPK target gene set in RASK (KRAS) mutant cells", "conditions": "RNA-sequencing", "experimental": "FIG. 2E is a graph showing the log 2 fold change in expression of a MAPK target gene set determined by mRNA sequencing in cancer cells treated with shARAF, shBRAF, or shCRAF. Cells were treated with 0.5 μg/mL doxycycline (DOX) for 72 hours. Cells were treated with a MEK inhibitor (GDC-0973) for 6 hours, 250 nM (n=3) or an ERK inhibitor (GDC-0994). Data are normalized to a non-targeting control (shNT) and DMSO (no DOX).\nTo confirm sustained MAPK activity in spite of RAF1 (CRAF) depletion, we performed a gene expression analysis for the MAPK downstream effectors DUSP6 and SPRTY upon RAF1 (CRAF) depletion in the examined RASK (KRAS) mutant cells lines. […] In order to delineate pathway alterations upon RAF1 (CRAF) depletion versus MAPK inhibition, RNA-sequencing analysis was performed. […] Thus, RAF kinases compensate to sustain MAPK signaling in comparison to MAPK inhibition."}, "RAF1:BRAF heterodimers": {"test_system": "RAF1:BRAF heterodimers", "test": "Immunoprecipitation of FLAG-tagged RAF1 (CRAF) in A549 RAF1 (CRAF) knockout cells", "conditions": "250 nM, 24 hours", "from_the_text": "Eluates were co-immunoprecipitated and blotted with the indicated antibodies.\nTo test whether RAF1 (CRAF) kinase activity is required for RASK (KRAS) mutant tumor cell growth, knockout cell lines of the three RAF isoforms were generated in a RASK (KRAS) mutant background. […] In the RAF1 (CRAF) knockout RASK (KRAS) mutant cells, stable expression of a panel of RAF1 (CRAF) mutants was established. […] Expression of RAF1 (CRAF) kinase-dead mutants including RAF1^D468N, RAF1^D486A, and RAF1^K375M(CRAF^D468N, CRAF^D486A, and CRAF^K375M) reduced pERK levels compared to cells expressing RAF1^wild-type (CRAF^wild-type) or RAF1^S259A (CRAF^S259A), a mutation which renders the RAF1 (CRAF) kinase constitutively active (FIG. 5C). RAF1 (CRAF) kinase-dead mutants either partially (RAF1^D468N (CRAF^D468N), RAF1^D486A(CRAF^D486A)) or fully (RAF1^K375M (CRAF^K375M)) rescued colony growth in RAF1 (CRAF)-deficient RASK (KRAS) mutant cells (FIGS. 4B and 5D). […] Functionally, the CRAF^K375M mutation completely abrogated MEK phosphorylation compared to CRAF^wild-type, but still rescued colony growth in RAF1-deficient RASK (KRAS) mutant cells (FIGS. 4C and 5C). […] Consistent with this, RAF1 (CRAF) kinase-dead mutants behaved like the RAF1 (CRAF) knockout, and were unable to rescue cell growth inhibition in the presence of MEK inhibitor compared to the cells expressing CRAF^wild-type (FIGS. 5E and 5F). […]"}, "[3]": {"test_system": "CRAF:BRAF and CRAF:ARAF dimers", "test": "PIKES targeted analysis (PRM-MS) of immunoprecipitated FLAG-tagged CRAF wild-type", "conditions": "250 nM, 24 hours", "quoted_text": "Collected eluates were then combined with 100 fmol of QconCAT reagent and samples were processed similarly to the cell line analysis above for PRM analysis. For PRM analysis, RAW files were loaded onto Skyline (v19.1). A target peptide list was generated from the QconCAT peptides for both unlabeled and heavy-labeled peptides with transition setting filtered for precursor charges 2 and 3, ion charges 1 and 2, and y-ion types. Selected peaks from product ions were reviewed manually. Both MS1 and MS/MS filtering were set to Orbitrap mass analyzer with 60,000 resolving power. Signal was summed for the top three product ions and normalized to the heavy labeled QconCAT internal standard for peptide quantification."}, "[4]": {"test_system": "A549 RAF1 (CRAF) knockout (CRAF KO) cancer cells", "test": "Soft-agar colony formation assay in A549 RAF1 (CRAF) knockout cells with MEK or ERK inhibitor dose titration", "conditions": "for cell survival of RAF1 (CRAF)-depleted cells: increasing the dose; for cell survival of RAF1 (CRAF) ablated RASK (KRAS) mutant cells: low-dose treatment", "from_the_text": "(§1) FIG. 11F is a set of photomicrographs showing the results of a soft-agar colony formation assay in A549 parental and RAF1 (CRAF) knockout (CRAF KO) cancer cells upon treatment with DMSO or a MEK inhibitor (GDC-0973) at the indicated dose titrations. The colonies were labeled with MTT reagent and imaged using a GelCount imager.\nas §1, with “11G” for “11F”, “an ERK” for “a MEK”, “(GDC-0994)” for “(GDC-0973)”\nWithin the MAPK pathway, expression of BRAF^D631A mutation upon BRAF^wild-type loss induces cellular toxicity which impedes tumor development of RASK (KRAS) mutant lung tumors (Nieto et al., Nature, 548: 239-243, 2017; Yao et al., Nature, 548: 234-238, 2017). Importantly, pharmacological inhibition of ERK rescued tumor growth in this context (Nieto et al., Nature, 548: 239-243, 2017; Yao et al., Nature, 548: 234-238, 2017). […] Thus, oncogenic cellular stress induced by ARAF catalytic activity could be inhibited by low-dose MAPK inhibition, thereby promoting survival of RASK (KRAS) mutant cells."}, "[5]": {"test_system": "A549 cancer cells depleted of RAF1 (CRAF)", "test": "Soft-agar colony formation assay in A549 cells treated with shCRAF and co-treated with cell death inhibitors", "conditions": "single agent; ZVAD-FMK 20 μM, NEC1 30 μM, Bafilomycin 50 nM", "experimental": "FIG. 12G is a set of photomicrographs showing the results of a soft-agar colony formation assay in A549 cancer cells upon treatment with shCRAF and co-treatment with the indicated inhibitors. […] Cells were co-treated with DMSO or inhibitors for cellular apoptosis (ZVAD-FMK, 20 μM), necroptosis (NEC1, 30 μM) or a combination of both (ZVAD-FMK, 10 μM; NEC1, 10 μM) and an autophagy inhibitor (Bafilomycin, 50 nM).\nAs ARAF catalytic function inhibits cell growth upon RAF1 (CRAF) loss, mechanisms by which ARAF limits growth of RASK (KRAS) mutant cells were investigated. Given that MAPK inhibition is associated with induction of cellular apoptosis (Yen et al., Cancer Cell, 34: 611-625, 2018), it was hypothesized that RAF1 (CRAF) ablation induces cell death, similar to MAPK inhibition in RASK (KRAS) mutants. […] Additionally, RAF1 (CRAF) ablation in a […] isogenic RASK (KRAS) mutant cell line (HCT116 p21^−/−) rescued cell growth inhibition mediated upon RAF1 (CRAF) loss (FIG. 12A). […] A chemical inhibitor approach was adopted to test whether cell growth inhibition upon RAF1 (CRAF) loss could be rescued by the treatment with apoptosis or autophagic inhibitors. […] Finally, a Gene Set Enrichment Analysis (GSEA) of targets involved in the apoptosis pathway was performed, but no significant enrichment of any apoptosis target gene set was observed upon acute depletion of ARAF, BRAF or RAF1 (CRAF) (FIG. 12I). […] Thus, RAF1 (CRAF) depletion promotes p21-mediated cell cycle arrest in RASK (KRAS) mutant cancer cells. Further, co-depletion of RAF1 (CRAF) and ARAF in RASK (KRAS) mutant cells abrogated the expression levels of p21 (FIG. 4E)."}},
  "note": "Peptide text beside a SMILES is read from it. * marks the point of attachment. Cbz = O=C(OCc1ccccc1)*; CH2F = FC*",
  "data": [
    {"smiles": "Cc1ccc(NC(=O)c2cccc(C(C)(C)C#N)c2)cc1Nc1ccc2ncn(C)c(=O)c2c1", "note": "[AZ-628]", "values": [
      {"measurement": "sensitivity of colony growth to RAF dimer inhibition", "setting": "[1]; ARAF ablation in RASK (KRAS) mutant cells", "value": "sensitized cells to RAF dimer inhibition"},
      {"measurement": "sensitivity of colony growth to RAF dimer inhibition", "setting": "[1]; BRAF ablation in RASK (KRAS) mutant cells", "value": "less sensitive to RAF dimer inhibition"}
    ]},
    {"smiles": "O=C(c1ccc(F)c(F)c1Nc1ccc(I)cc1F)N1CC(O)([C@@H]2CCCCN2)C1", "note": "[GDC-0973]", "values": [
      {"measurement": "effect on MAPK signaling (pMEK, pERK Western blot)", "setting": "MAPK signaling", "value": "suppresses MAPK signaling"},
      {"measurement": "effect on expression of ERK downstream substrates (MAPK target gene set)", "setting": "[2]", "value": "induced suppression of ERK downstream substrates"},
      {"measurement": "RAF heterodimers co-immunoprecipitated with FLAG-CRAF", "setting": "RAF1:BRAF heterodimers", "value": "enriched for RAF1:BRAF heterodimers"},
      {"measurement": "preferential RAF dimer association of CRAF wild-type (PIKES)", "setting": "[3]", "value": "promoted increased CRAF: BRAF dimers in comparison to CRAF: ARAF dimers"},
      {"measurement": "cell survival of RAF1 (CRAF)-depleted cells", "setting": "[4]", "value": "limited cell survival"},
      {"measurement": "cell survival of RAF1 (CRAF) ablated RASK (KRAS) mutant cells", "setting": "[4]", "value": "promoted cell survival"}
    ]},
    {"smiles": "Cn1nccc1Nc1nccc(-c2ccn([C@H](CO)c3ccc(Cl)c(F)c3)c(=O)c2)n1", "note": "[GDC-0994]", "values": [
      {"measurement": "effect on expression of ERK downstream substrates (MAPK target gene set)", "setting": "[2]", "value": "induced suppression of ERK downstream substrates"},
      {"measurement": "cell survival of RAF1 (CRAF)-depleted cells", "setting": "[4]", "value": "limited cell survival"},
      {"measurement": "cell survival of RAF1 (CRAF) ablated RASK (KRAS) mutant cells", "setting": "[4]", "value": "promoted cell survival"}
    ]},
    {"smiles": "CN1C(=O)C(Cc2c[nH]c3ccccc23)NC1=S", "note": "(centres unmarked) [NEC1]", "values": [
      {"measurement": "rescue of cell growth in RAF1 (CRAF)-depleted RASK (KRAS) mutant cells", "setting": "[5]", "value": "did not rescue cell growth"}
    ]},
    {"smiles": "COC(=O)C[C@H](NC(=O)[C@H](C)NC(=O)[C@@H](NC(=O)OCc1ccccc1)C(C)C)C(=O)CF", "note": "[Z-VAD-FMK] (Cbz-Val-Ala-Asp(OMe)-CH2F)", "values": [
      {"measurement": "rescue of cell growth in RAF1 (CRAF)-depleted RASK (KRAS) mutant cells", "setting": "[5]", "value": "did not rescue cell growth"}
    ]},
    {"smiles": "CO/C1=C\\C(C)=C\\[C@@H](C)[C@@H](O)[C@@H](C)C/C(C)=C/C=C/[C@H](OC)[C@@H]([C@@H](C)[C@@H](O)[C@H](C)[C@@]2(O)C[C@@H](O)[C@H](C)[C@@H](C(C)C)O2)OC1=O", "note": "[bafilomycin]", "values": [
      {"measurement": "rescue of cell growth in RAF1 (CRAF)-depleted RASK (KRAS) mutant cells", "setting": "[5]", "value": "did not rescue cell growth"}
    ]}
  ]
}
